Patent publication US20120129811A1, “TRICYCLIC INHIBITORS OF PRO-MATRIX METALLOPROTEINASE ACTIVATION” (priority 2010, published 2012)

Assays:
[1] = tested on: rats with SCW-induced arthritis; assay: Efficacy in rats with SCW-induced arthritis (ankle thickness, clinical scores); format: in vivo, rat; details: for Ankle thickness, Day 18 / Clinical Scores (0-8), Day 18: Day 18 (start of treatment); for Ankle thickness, Day 18 / Ankle thickness, Day 26 / Clinical Scores (0-8), Day 18 / Clinical Scores (0-8), Day 26: mean n=5; for % Inh (disease associated increase in ankle thickness): Day 26
Source text: A polyarthritis can be induced in female Lewis rats following i.p. administration of streptococcal cell wall (SCW) proteoglycan-polysaccharides (PG-PS) (J Exp Med 1977; 146:1585-1602). The model has an acute phase (days 3-7) that is complement and neutrophil-dependent and that resolves. A chronic erosive phase begins at about day ten and is dependent on the development of specific T cell immunity to the PG-GS, which resists digestion and remains present in synovial macrophages for months. Like rheumatoid arthritis, SCW-induced arthritis is reduced by TNF inhibitors, and the dependence of SCW-induced arthritis on macrophages (Rheumatology; 2001; 40:978-987) and the strong association of rheumatoid arthritis severity with synovial-tissue macrophage counts (Ann Rheum Dis; 2005; 64:834-838) makes SCW-arthritis an attractive model for testing potential therapeutic agents. SCW PG-PS 10S (Beckton Dickinson Cat#210866) suspended in saline was vortexed for 30 seconds and sonicated for 3 min with a probe type sonicator prior to injection. Female Lewis (LEW/N) rats, 5-6 weeks of age (80-100 g) were injected (i.p.) with SCW PG-PS (15 μg of rhamnose/gram BW) in the lower left quadrant of the abdomen using a 1 mL syringe fitted with a 23-gauge needle. Control (disease-free) rats were treated in a similar manner with sterile saline. Control rats were sacrificed on day 5 and groups of SCW-injected rats were sacrificed on day 5 when acute inflammation was maximal or on day 18 when chronic inflammation was established.
To induce arthritis, Female Lewis (LEW/N) rats, 5-6 weeks of age (80-100 g) were injected (i.p.) with SCW PG-PS as described above. Eighteen days later, arthritis was well established. Calipers were used to measure the width (anterior to posterior surface) of the left and right hind ankles of each rat. Each ankle was measured 3 times and averaged, and treatment groups were randomized based on ankle thickness (Table 6). Commencing on day 18, randomized groups of arthritic rats (n=5 rats/group) received vehicle or 5, 20, or 50 mg/kg Compound-α BID by oral gavage. Vehicle consisted of an aqueous mixture containing 2% (v:v) N-methylpyrrolidone, 5% (v:v) glycerine, and 20% (w:v) captisol. Treatment continued daily through the morning of day 26.
Hind paw inflammation clinical scores were assigned based on swelling and erythema.

[2] = target: T1, MMP9 mediated gelatinase activity (Rattus norvegicus, UniProt P50282); assay: In situ zymography of gelatinase activity in livers of SCW-induced rats dosed with Compound-α; format: in vivo; details: for Intensity, Rat 1 / Intensity, Rat 2 / Intensity, Rat 3 / Intensity, Mean: SCW, liver; for Intensity, Mean: n=3
T1 construct: from tissue; host or cells: frozen liver sections of female Lewis rats
T1 sequence (P50282 20-708): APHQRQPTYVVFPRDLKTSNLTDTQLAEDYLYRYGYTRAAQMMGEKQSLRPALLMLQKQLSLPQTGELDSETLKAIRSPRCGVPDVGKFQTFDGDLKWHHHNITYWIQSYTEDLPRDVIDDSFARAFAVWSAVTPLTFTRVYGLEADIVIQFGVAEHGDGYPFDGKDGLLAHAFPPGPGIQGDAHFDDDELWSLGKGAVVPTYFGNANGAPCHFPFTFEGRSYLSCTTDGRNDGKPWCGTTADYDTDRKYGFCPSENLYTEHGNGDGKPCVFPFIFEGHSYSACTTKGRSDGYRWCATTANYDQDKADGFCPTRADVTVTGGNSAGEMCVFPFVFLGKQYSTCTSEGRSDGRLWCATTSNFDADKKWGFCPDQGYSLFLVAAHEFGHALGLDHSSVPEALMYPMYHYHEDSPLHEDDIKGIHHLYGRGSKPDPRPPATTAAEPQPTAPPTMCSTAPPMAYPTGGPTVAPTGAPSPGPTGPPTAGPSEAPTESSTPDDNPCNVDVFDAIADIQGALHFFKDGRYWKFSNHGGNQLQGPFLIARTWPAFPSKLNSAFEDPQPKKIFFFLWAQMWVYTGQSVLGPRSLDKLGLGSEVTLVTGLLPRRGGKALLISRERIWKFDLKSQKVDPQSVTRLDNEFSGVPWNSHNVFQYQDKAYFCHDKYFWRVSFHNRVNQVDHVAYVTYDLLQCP
Source text: In situ zymography provides an alternative approach to assess active MMP9 in tissues (Frederiks). Tissue sections are overlain with fluorescene-conjugated gelatin wherein the conjugation is sufficiently dense to cause the fluorescene to be dye-quenched (DQ). Proteolytic degradation of the DQ-gelatin releases the fluorescene from the quenching effect giving rise to bright green fluorescence at the site of degradation. Because in situ zymography requires the use of frozen sections, calcified tissues are problematic. However, an additional feature of the SCW arthritis model is the development of hepatic granulomatous disease (J Immunol; 1986; 137:2199-2209), and MMP9 reportedly plays a role in macrophage recruitment in the granulomas response to mycobacteria (Infect Immun; 2006; 74:6135-6144). Consequently, granulomatous livers from SCW-treated rats were assessed for active MMP9 by in situ zymography.
As described above, Female Lewis (LEW/N) rats, 5-6 weeks of age (80-100 g) were injected (i.p.) with saline or SCW PG-PS. On day 28, when the granulomatous response was well established, animals were sacrificed and livers were frozen in OCT cryo-sectioning medium and 10 μm sections were cut on a Cryome HM 500 M cryotome and mounted on glass microscope slides. Sections were air dried briefly. MMP9 was confirmed as the source of the gelatinase activity in the liver by treating liver sections with monoclonal antibodies directed against the active site of the two major gelatinases MMP9 and MMP2. Liver sections overlain with 50 μL of 100 μg/mL neutralizing mouse monoclonal antibodies directed against MMP9 (Calbiochem, clone 6-6B), or MMP2 (Millipore, clone CA-4001), or with PBS for 1 hr at room temperature. Tissues were rinsed once with PBS, blotted, and briefly air dried and then overlain with DQ-gelatin (Invitrogen) dissolved to 1 mg/mL in deionized water and then diluted 1:10 in 1% wt/vol low gelling point agarose type VII (Sigma) in PBS. The sections were covered with coverslips, incubated in the dark at room temperature for 20 min, and imaged on an Olympus IX80 inverted microscope fitted with fluorescence optics, using SlideBook™ imaging software (Intelligent Imaging Innovations, Inc., Philadelphia, Pa.; version 5.0). Fluorescence intensity was determined (Table 8). When compared to a saline-treated rat, gelatinase activity was abundantly expressed in granulomatous liver sections obtained from a rat with SCW arthritis.
Next, liver in situ zymography was used to assess the relative presence of active MMP9 in rats dosed with vehicle vs. Compound-α. Female Lewis (LEW/N) rats, 5-6 weeks of age (80-100 g) were injected (i.p.) with saline or SCW PG-PS. Commencing on day 25, randomized groups of rats (n=3 rats/group) received vehicle or 20 or 50 mg/kg Compound-α BID by oral gavage. Vehicle consisted of an aqueous mixture containing 2% (v:v) N-methylpyrrolidone, 5% (v:v) glycerine, and 20% (w:v) captisol. Treatment continued daily through the morning of day 28. Four hrs after the AM dose on day 28, rats were sacrificed and livers assessed for active MMP9 by in situ zymography (Table 9). Gelatinase activity was increased markedly in SCW-induced rats, but activity was reduced by approximately 80% in animals treated with 50 mg/kg Compound-α.

[3] = 5 mg/kg BID oral gavage Day 18-26
[4] = 20 mg/kg BID oral gavage Day 18-26
[5] = 50 mg/kg BID oral gavage Day 18-26
[6] = 20 mg/kg BID oral gavage Day 25-28
[7] = 50 mg/kg BID oral gavage Day 25-28

Compound: Cc1nc(C)c(-c2csc(Nc3cc(S(N)(=O)=O)ccc3OC(C)C)n2)s1 [Compound α, 3-(2′,4′-Dimethyl-[4,5′]bithiazolyl-2-ylamino)-4-isopropoxy-benzenesulfonamide.HBr]
- Day 26 Δ mm (vs. group 1) [1, 3]: 3.67 mm
- Ankle thickness, Day 18 [1, 3]: 11.79 mm
- % Inh (disease associated increase in ankle thickness) [1, 3]: 27%
- Ankle thickness, Day 26 [1, 3]: 10.93 mm
- Clinical Scores, Δ Day 18 vs. day 26 ([1]; 5 mg/kg Day 18-26): −1.20
- Clinical Scores (0-8), Day 18 ([1]; 5 mg/kg Day 18-26): 8.00
- Clinical Scores (0-8), Day 26 ([1]; 5 mg/kg Day 18-26): 6.80
- Day 26 Δ mm (vs. group 1) [1, 4]: 3.15 mm
- Ankle thickness, Day 18 [1, 4]: 11.76 mm
- % Inh (disease associated increase in ankle thickness) [1, 4]: 37%
- Ankle thickness, Day 26 [1, 4]: 10.42 mm
- Clinical Scores, Δ Day 18 vs. day 26 ([1]; 20 mg/kg Day 18-26): −2.80
- Clinical Scores (0-8), Day 18 ([1]; 20 mg/kg Day 18-26): 8.00
- Clinical Scores (0-8), Day 26 ([1]; 20 mg/kg Day 18-26): 5.20
- Day 26 Δ mm (vs. group 1) [1, 5]: 2.73 mm
- Ankle thickness, Day 18 [1, 5]: 11.68 mm
- % Inh (disease associated increase in ankle thickness) [1, 5]: 46%
- Ankle thickness, Day 26 [1, 5]: 9.99 mm
- Clinical Scores, Δ Day 18 vs. day 26 ([1]; 50 mg/kg Day 18-26): −3.40
- Clinical Scores (0-8), Day 18 ([1]; 50 mg/kg Day 18-26): 7.80
- Clinical Scores (0-8), Day 26 ([1]; 50 mg/kg Day 18-26): 4.40
- effect on ankle thickness measurements ([1]; 5, 20, 50 mg/kg BID, Day 18-26): dose-dependent decrease in ankle thickness measurements
- effect on clinical score measurements ([1]; 5, 20, 50 mg/kg BID, Day 18-26): dose dependent decrease in clinical score measurements
- reduction of gelatinase activity in liver ([2]; 50 mg/kg, SCW-induced rats, day 28): approximately 80%
- Intensity, Rat 1 [2, 6]: 43.0 RLU × 10^6
- Intensity, Rat 2 [2, 6]: 69.0 RLU × 10^6
- Intensity, Rat 3 [2, 6]: 53.7 RLU × 10^6
- Intensity, Mean [2, 6]: 55.2 RLU × 10^6
- Intensity, Rat 1 [2, 7]: 3.2 RLU × 10^6
- Intensity, Rat 2 [2, 7]: 25.6 RLU × 10^6
- Intensity, Rat 3 [2, 7]: 4.5 RLU × 10^6
- Intensity, Mean [2, 7]: 11.1 RLU × 10^6
